Test results from patent US8007767B2, “Amino methyl imidazoles and related compounds as C5a receptor modulators” (Novartis International Pharmaceutical Ltd., priority 2002, dated 2011).

The compounds below were run against T1, human C5a receptor (Homo sapiens, UniProt P21730) (assay: standard assay of C5a receptor mediated calcium mobilization (Example 20)). Conditions: differentiated U937 cells, read-out: Ki < 1 μM.
T1 construct: endogenous in cells; host or cells: U937 cells differentiated with 1 mM dibutyryl cAMP
T1 sequence (P21730 1-350): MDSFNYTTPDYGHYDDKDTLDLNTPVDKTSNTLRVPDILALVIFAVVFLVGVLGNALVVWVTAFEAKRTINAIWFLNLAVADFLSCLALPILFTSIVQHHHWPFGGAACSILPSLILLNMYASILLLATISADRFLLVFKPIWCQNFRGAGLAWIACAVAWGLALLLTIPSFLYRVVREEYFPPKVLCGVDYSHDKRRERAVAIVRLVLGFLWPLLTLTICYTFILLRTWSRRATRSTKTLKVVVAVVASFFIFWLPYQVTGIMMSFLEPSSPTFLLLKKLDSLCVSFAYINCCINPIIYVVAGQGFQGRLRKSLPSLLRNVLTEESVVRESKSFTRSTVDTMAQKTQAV
Type: cell-based
Protocol: U937 cells are grown in differentiation media (1 mM dibutyrl cAMP in RPMI 1640 medium containing 10% fetal bovine serum) for 48 hours at 37° C. then reseeded onto 96-well plates suitable for use in a FLIPR™ Plate Reader (Molecular Devices Corp., Sunnyvale Calif.). Cells are grown an additional 24 hours (to 70-90% confluence) before the assay. The cells are then washed once with Krebs Ringer solution. FLUO-3 calcium sensitive dye (Molecular Probes, Inc. Eugene, Oreg.) is added to 10 μg/mL and incubated with the cells at room temperature for 1 to 2 hours. The 96 well plates are then washed to remove excess dye.
C. Assays for the Identification of Receptor Modulatory Agents: Antagonists and Agonists
Those of skill in the art will recognize that the calcium mobilization assay described above may be readily adapted for identifying test compounds as having agonist or antagonist activity, at the human C5a receptor.
For example, in order to identify antagonist compounds, differentiated U937 cells are washed and incubated with Fluo-3 dye as described above. One hour prior to measuring the fluorescence signal, a subset of the cells is incubated with a 1 uM concentration of at least one compound to be tested. The fluorescence response upon the subsequent addition of 0.3 nM (final concentration) human recombinant C5a is monitored using the FLIPR™ plate reader. Antagonist compounds elicit at least a 2-fold decrease in the fluorescence response relative to that measured in the presence of human C5a alone. Preferred antagonist compounds elicit at least a 5-fold, preferably at least a 10-fold, and more preferably at least a 20-fold decrease in the fluorescence response relative to that measured in the presence of human C5a alone.

Structure (SMILES) | Ki [nM]
CCCCn1c(C2CC=CCC2)nc(-c2ccccc2)c1CN(Cc1ccc2c(c1)OCO2)Cc1ccc2c(c1)OCO2 (centres unmarked) [Compound 13, 1-(1,3-benzodioxol-5-yl)-N-(1,3-benzodioxol-5-ylmethyl)-N-[(1-butyl-2-cyclohex-3-enyl-4-phenyl-1H-imidazol-5-yl)methyl]methanamine] | < 1000
CCCCn1c(N2CCOCC2)nc(Cl)c1CN(CCC(C)C)Cc1ccc2c(c1)CCCN2 [Compound 22] | < 1000
CCCCn1c(CN(Cc2ccccc2)Cc2ccc3c(c2)OCCO3)cnc1C1CCCCC1 [Compound 10, Benzyl-(1-butyl-2-cyclohexyl-3H-imidazol-5-ylmethyl)-(2,3-dihydro-benzo[1,4]dioxin-6-ylmethyl)-amine] | < 1000
CCCCN(Cc1ccc2[nH]ccc2c1)Cc1c(Cl)nc(N2CCOCC2)n1CCCC [Compound 16, N-[(1-butyl-4-chloro-2-morpholin-4-yl-1H-imidazol-5-yl)methyl]-N-(1H-indol-5-ylmethyl)butan-1-amine] | < 1000
CCCCN(Cc1c(Cl)nc(N2CCOCC2)n1CCCC)C(C)c1ccc2c(c1)OCCO2 (centres unmarked) [Compound 19, N-[(1-butyl-4-chloro-2-morpholin-4-yl-1H-imidazol-5-yl)methyl]-N-[1-(2,3-dihydro-1,4-benzodioxin-6-yl)ethyl]butan-1-amine] | < 1000
CCCCn1c(N2CCOCC2)nc(Cl)c1CN(Cc1ccc(C(=O)O)cc1)Cc1ccc2c(c1)OCCO2 [Compound 15, 4-{[[(1-butyl-4-chloro-2-morpholin-4-yl-1H-imidazol-5-yl)methyl](2,3-dihydro-1,4-benzodioxin-6-ylmethyl)amino]methyl}benzoic acid] | < 1000
CCCCn1c(N2CCOCC2)nc(Cl)c1CN(CCC(C)C)C(C)c1ccc2c(c1)OCCO2 (centres unmarked) [Compound 20, N-{(1-butyl-4-chloro-2-morpholin-4-yl-1H-imidazol-5-yl)methyl]-N-[1-(2,3-dihydro-1,4-benzodioxin-6-yl)ethyl]-3-methylbutan-1-amine] | < 1000

The next lines start with the values.

Ki [nM] | Structure (SMILES)
< 1000 | CCCCn1c(CN(Cc2ccccc2)Cc2ccc3c(c2)OCO3)cnc1C1CCCCC1 [Compound 9, Benzo[1,3]dioxol-5-ylmethyl-benzyl(1-butyl-2-cyclohexyl-3H-imidazol-5-ylmethyl)-amine]
< 1000 | CCCCn1c(C2=CCCCC2)nc(-c2ccccc2)c1CN(Cc1ccc2c(c1)OCO2)Cc1ccc2c(c1)OCO2 [Compound 12, 1-(1,3-benzodioxol-5-yl)-N-(1,3-benzodioxol-5-ylmethyl)-N-[(1-butyl-2-cyclohex-1-en-1-yl-4-phenyl-1H-imidazol-5-yl)methyl]methanamine]
< 1000 | CCCCn1c(N2CCCCC2)nc(Cl)c1CN(Cc1cccc(OCC)c1)Cc1ccc2c(c1)OCCO2 [Compound 21, 1-(1-butyl-4-chloro-2-piperidin-1-yl-1H-imidazol-5-yl)-N-(2,3-dihydro-1,4-benzodioxin-6-ylmethyl)-N-(3-ethoxybenzyl)methanamine]
< 1000 | CCCCn1c(C2CC2)nc(-c2ccccc2)c1CN(Cc1ccc2c(c1)OCO2)Cc1ccc2c(c1)OCO2 [Compound 11, 1-(1,3-benzodioxol-5-yl)-N-(1,3-benzodioxol-5-ylmethyl)-N-[(1-butyl-2-cycloproyl-4-phenyl-1H-imidazol-5yl)methyl]methanamine]
< 1000 | CCCCN(Cc1ccc2c(c1)OCCO2)Cc1c(Cl)nc(N2CCOCC2)n1CCCC [Compound 17, N-[(1-butyl-4-chloro-2-morpholin-4-yl-1H-imidazol-5-yl)methyl]-N-(2,3-dihydro-1,4-benzodioxin-6-ylmethyl)butan-1-amine]
< 1000 | CCCCn1c(N2CCOCC2)nc(Cl)c1CN(Cc1ccc(C(=O)OC)cc1)Cc1ccc2c(c1)OCCO2 [Compound 14, methyl 4-{[[(1-butyl-4-chloro-2-morpholin-4-yl-1H-imidazol-5-yl)methyl](2,3-dihydro-1,4-benzodioxin-6-ylmethyl)amino]methyl}benzoate]
< 1000 | CCCCn1c(N2CCOCC2)nc(Cl)c1CN(CCC(C)C)Cc1ccc2c(c1)OCCO2 [Compound 18, N-[(1-butyl-4-chloro-2-morpholin-4-yl-1H-imidazol-5-yl)methyl]-N-(2,3-dihydro-1,4-benzodioxin-6-ylmethyl)-3-methylbutan-1-amine]
